For this assay, the target named is cofilin (Homo sapiens, UniProt P23528). As to the kind of experiment: Cofilin inhibition by the compound still protected on one side (no method given). The settings on record: one side of the Formula I structure still protected (TBS).
cofilin, sequence (P23528 whole entry): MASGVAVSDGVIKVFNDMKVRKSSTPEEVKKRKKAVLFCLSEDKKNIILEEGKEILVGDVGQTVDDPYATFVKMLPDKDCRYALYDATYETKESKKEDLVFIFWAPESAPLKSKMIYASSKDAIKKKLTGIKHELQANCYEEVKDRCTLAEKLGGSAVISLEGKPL

As to `CC(C)(C)c1ccc(O)c(CN(Cc2cc(C(C)(C)C)ccc2O[Si](C)(C)C(C)(C)C)C2CCC(NC(N)=O)CC2)c1` (stereo not shown) [SZ-2], the cofilin inhibition result is “still works to inhibit cofilin”.

For the origin of these results see patent publication US11548850B2, “Development of a cofilin inhibitor for the treatment of hemorrhagic brain injury-induced neuroinflammation” (The University of Toledo, priority 2019, dated 2023).
